The NIST ThermoML archive (doi:10.1021/je1007197)
Several values for one entry are separate records, joined by “and”; a condition that tells them apart may be missing. Equal entries are not always repeated.

Details: Liquid, Hot wire method

CCCCOCCO [2-butoxyethan-1-ol]
thermal conductivity
Details	304.15 K	321.15 K	338.15 K
100 kPa	0.1529 W/m/K and 0.1533 W/m/K	0.1497 W/m/K and 0.1496 W/m/K	0.1461 W/m/K and 0.1463 W/m/K
16400 kPa	0.1579 W/m/K	0.1548 W/m/K	0.1518 W/m/K
27300 kPa	0.1612 W/m/K	0.1585 W/m/K	0.1555 W/m/K
41800 kPa	0.1646 W/m/K	0.1628 W/m/K	0.1601 W/m/K
56100 kPa	0.1689 W/m/K	0.1665 W/m/K	0.164 W/m/K
70200 kPa	0.1722 W/m/K	0.1701 W/m/K	0.1677 W/m/K
79000 kPa	0.174 W/m/K	–	–
83500 kPa	0.1749 W/m/K	–	–
84200 kPa	–	0.1739 W/m/K	0.1717 W/m/K
98200 kPa	0.1785 W/m/K	0.177 W/m/K	0.1751 W/m/K
108700 kPa	–	–	0.1775 W/m/K
112200 kPa	0.182 W/m/K	0.18 W/m/K	–
123400 kPa	–	–	0.1807 W/m/K
124100 kPa	0.1836 W/m/K	–	–
126200 kPa	–	0.183 W/m/K	–
134900 kPa	–	0.1851 W/m/K	–
140100 kPa	0.187 W/m/K	–	0.1844 W/m/K
149200 kPa	0.1885 W/m/K	–	–
150600 kPa	–	0.1879 W/m/K	–
